Values quoted from earlier work, collected in patent US20240108573A1, “NANOLIPID CARRIER BASED FORMULATION FOR BRAIN DELIVERY THROUGH INTRANASAL ROUTE AND ITS PREPARATION PROCESS” (AMRITA SCHOOL OF PHARMACY, AMRITA VISHWA VIDYAPEETHAM, priority 2022, published 2024).

biological half-life: 15-22 hrs
Compound: O=C1NC(=O)C(c2ccccc2)(c2ccccc2)N1 [phenytoin sodium]
